Measured values as given in patent US10004701B2, “Methods and compositions for treating infection” (UNIVERSITY OF ROCHESTER, priority 2012, dated 2018).
Counter-ions that a name gives are not always drawn. Like-named read-outs stand apart in the source and are kept apart here.

Assays:
Assay in all cases: AK assay 384-well format, Prestwick library screening
[1] = tested on: A. baumannii strain 98-37-09; assay type: cell-based, Acinetobacter baumannii; conditions: 50 μM final drug concentration; for fold induction at 50 µM: Acinetobacter baumannii, 983709, 3 h
E. cloacae = assay type: cell-based, Enterobacter cloacae; conditions: 50 μM final drug concentration; for fold induction at 50 µM: Enterobacter cloacae, 3 h
K. pneumoniae = assay type: cell-based, Klebsiella pneumoniae; conditions: 50 μM final drug concentration; for fold induction at 50 µM: Klebsiella pneumoniae, 3 h
E. faecium = assay type: cell-based, Enterococcus faecium; conditions: 50 μM final drug concentration; for fold induction at 50 µM: Enterococcus faecium, 3 h
[2] = tested on: S. aureus strain USA300-0114; assay type: cell-based, Staphylococcus aureus; conditions: 50 μM final drug concentration; for fold induction at 50 µM: Staphylococcus aureus, USA300, 3 h
P. aeruginosa = assay type: cell-based, Pseudomonas aeruginosa; conditions: 50 μM final drug concentration; for fold induction at 50 µM: Pseudomonas aeruginosa, 3 h
E. coli = assay type: cell-based, Escherichia coli; conditions: 50 μM final drug concentration; for fold induction at 50 µM: Escherichia coli, 3 h

Question: For `COC(=O)[C@H]1[C@H]2C[C@@H]3c4[nH]c5cc(OC)ccc5c4CCN3C[C@H]2C[C@@H](OC(=O)/C=C/c2cc(OC)c(OC)c(OC)c2)[C@@H]1OC` [Rescinnamin], which “AK-based Prestwick Library Screening Results, A. baumannii (increase in extracellular AK activity)” value ([1]; planktonic A. baumannii, cutoff for positive-scoring molecules 3-fold increase) is on record?
Answer: 1.1

Question: And the “AK-based Prestwick Library Screening Results, E. cloacae (increase in extracellular AK activity)” value (E. cloacae; planktonic E. cloacae, cutoff for positive-scoring molecules 3-fold increase)?
Answer: 0.6

Question: And the “AK-based Prestwick Library Screening Results, K. pneumoniae (increase in extracellular AK activity)” value (K. pneumoniae; planktonic K. pneumoniae, cutoff for positive-scoring molecules 3-fold increase)?
Answer: 0.6

Question: What about the “AK-based Prestwick Library Screening Results, E. faecium (increase in extracellular AK activity)” value (E. faecium; planktonic E. faecium, cutoff for positive-scoring molecules 3-fold increase) of the same molecule?
Answer: 1.0

Question: What about the “AK-based Prestwick Library Screening Results, S. aureus (increase in extracellular AK activity)” value ([2]; planktonic S. aureus, cutoff for positive-scoring molecules 3-fold increase) of the same molecule?
Answer: 0.3

Question: What about the “AK-based Prestwick Library Screening Results, P. aeruginosa (increase in extracellular AK activity)” value (P. aeruginosa; planktonic P. aeruginosa, cutoff for positive-scoring molecules 3-fold increase) of the same molecule?
Answer: 0.4

Question: And the “AK-based Prestwick Library Screening Results, E. coli (increase in extracellular AK activity)” value (E. coli; planktonic E. coli, cutoff for positive-scoring molecules 3-fold increase)?
Answer: 0.7

Question: `COC(=O)[C@H]1[C@H]2C[C@@H]3c4[nH]c5cc(OC)ccc5c4CCN3C[C@H]2C[C@@H](OC(=O)c2cc(OC)c(OC)c(OC)c2)[C@@H]1OC` [Reserpine] was tested. Which fold induction at 50 µM ([1]; cutoff for positive-scoring molecules 3-fold increase, read-out: AK-based Prestwick Library Screening Results, A. baumannii (fold increase in extracellular AK activity)) did it give?
Answer: 1.5

Question: What about the fold induction at 50 µM (E. cloacae; cutoff for positive-scoring molecules 3-fold increase, read-out: AK-based Prestwick Library Screening Results, E. cloacae (fold increase in extracellular AK activity)) of the same molecule?
Answer: 1.5

Question: What about the fold induction at 50 µM (K. pneumoniae; cutoff for positive-scoring molecules 3-fold increase, read-out: AK-based Prestwick Library Screening Results, K. pneumoniae (fold increase in extracellular AK activity)) of the same molecule?
Answer: 1.2

Question: And the fold induction at 50 µM (E. faecium; cutoff for positive-scoring molecules 3-fold increase, read-out: AK-based Prestwick Library Screening Results, E. faecium (fold increase in extracellular AK activity))?
Answer: 1.1

Question: What about the fold induction at 50 µM ([2]; cutoff for positive-scoring molecules 3-fold increase, read-out: AK-based Prestwick Library Screening Results, S. aureus (fold increase in extracellular AK activity)) of the same molecule?
Answer: 1.3

Question: And the fold induction at 50 µM (P. aeruginosa; cutoff for positive-scoring molecules 3-fold increase, read-out: AK-based Prestwick Library Screening Results, P. aeruginosa (fold increase in extracellular AK activity))?
Answer: 1.4

Question: What about the fold induction at 50 µM (E. coli; cutoff for positive-scoring molecules 3-fold increase, read-out: AK-based Prestwick Library Screening Results, E. coli (fold increase in extracellular AK activity)) of the same molecule?
Answer: 1.3

Question: For `COc1ccc2c3c([nH]c2c1)[C@H]1C[C@H]2[C@H](C[C@@H](O)[C@H](OC)[C@H]2C(=O)O)CN1CC3.Cl` [Reserpinic acid hydrochloride], which “AK-based Prestwick library screening result, A. baumannii (fold increase in extracellular AK activity)” value ([1]; planktonic A. baumannii, positive cutoff 3-fold increase) is on record?
Answer: 0.8

Question: And the “AK-based Prestwick library screening result, E. cloacae (fold increase in extracellular AK activity)” value (E. cloacae; planktonic E. cloacae, positive cutoff 3-fold increase)?
Answer: 1.0

Question: And the “AK-based Prestwick library screening result, K. pneumoniae (fold increase in extracellular AK activity)” value (K. pneumoniae; planktonic K. pneumoniae, positive cutoff 3-fold increase)?
Answer: 0.7

Question: And the “AK-based Prestwick library screening result, E. faecium (fold increase in extracellular AK activity)” value (E. faecium; planktonic E. faecium, positive cutoff 3-fold increase)?
Answer: 0.9

Question: What about the “AK-based Prestwick library screening result, S. aureus (fold increase in extracellular AK activity)” value ([2]; planktonic S. aureus, positive cutoff 3-fold increase) of the same molecule?
Answer: 0.6

Question: And the “AK-based Prestwick library screening result, P. aeruginosa (fold increase in extracellular AK activity)” value (P. aeruginosa; planktonic P. aeruginosa, positive cutoff 3-fold increase)?
Answer: 0.8

Question: And the “AK-based Prestwick library screening result, E. coli (fold increase in extracellular AK activity)” value (E. coli; planktonic E. coli, […])?
Answer: 0.9

Question: What does the source list for `CC1=C(/C=C/C(C)=C/C=C/C(C)=C/C(=O)O)C(C)(C)CCC1` [Retinoic acid]?
Answer: fold induction at 50 µM ([1]; 384-well format, cutoff for positive-scoring molecules 3-fold increase, read-out: AK-based Prestwick Library Screening Results, A. baumannii (increase in extracellular AK activity)): 0.8; fold induction at 50 µM (E. cloacae; 384-well format, cutoff for positive-scoring molecules 3-fold increase, read-out: AK-based Prestwick Library Screening Results, E. cloacae (increase in extracellular AK activity)): 0.9; fold induction at 50 µM (K. pneumoniae; 384-well format, cutoff for positive-scoring molecules 3-fold increase, read-out: AK-based Prestwick Library Screening Results, K. pneumoniae (increase in extracellular AK activity)): 0.6; fold induction at 50 µM (E. faecium; 384-well format, cutoff for positive-scoring molecules 3-fold increase, read-out: AK-based Prestwick Library Screening Results, E. faecium (increase in extracellular AK activity)): 1; fold induction at 50 µM ([2]; 384-well format, cutoff for positive-scoring molecules 3-fold increase, read-out: AK-based Prestwick Library Screening Results, S. aureus (increase in extracellular AK activity)): 0.8; fold induction at 50 µM (P. aeruginosa; 384-well format, cutoff for positive-scoring molecules 3-fold increase, read-out: AK-based Prestwick Library Screening Results, P. aeruginosa (increase in extracellular AK activity)): 0.7; fold induction at 50 µM (E. coli; 384-well format, cutoff for positive-scoring molecules 3-fold increase, read-out: AK-based Prestwick Library Screening Results, E. coli (increase in extracellular AK activity)): 0.7

Question: For `NC(=O)c1ncn([C@@H]2O[C@H](CO)[C@@H](O)[C@H]2O)n1` [Ribavirin], which fold induction at 50 µM ([1]; planktonic A. baumannii, positive cutoff 3-fold increase, read-out: AK-based Prestwick library screening result, A. baumannii (fold increase in extracellular AK activity)) is on record?
Answer: 0.9

Question: And the fold induction at 50 µM (E. cloacae; planktonic E. cloacae, positive cutoff 3-fold increase, read-out: AK-based Prestwick library screening result, E. cloacae (fold increase in extracellular AK activity))?
Answer: 1.2

Question: What about the fold induction at 50 µM (K. pneumoniae; planktonic K. pneumoniae, positive cutoff 3-fold increase, read-out: AK-based Prestwick library screening result, K. pneumoniae (fold increase in extracellular AK activity)) of the same molecule?
Answer: 0.7

Question: What about the fold induction at 50 µM (E. faecium; planktonic E. faecium, positive cutoff 3-fold increase, read-out: AK-based Prestwick library screening result, E. faecium (fold increase in extracellular AK activity)) of the same molecule?
Answer: 0.9

Question: What about the fold induction at 50 µM ([2]; planktonic S. aureus, positive cutoff 3-fold increase, read-out: AK-based Prestwick library screening result, S. aureus (fold increase in extracellular AK activity)) of the same molecule?
Answer: 0.7

Question: And the fold induction at 50 µM (P. aeruginosa; planktonic P. aeruginosa, positive cutoff 3-fold increase, read-out: AK-based Prestwick library screening result, P. aeruginosa (fold increase in extracellular AK activity))?
Answer: 1.1

Question: And the fold induction at 50 µM (E. coli; planktonic E. coli, positive cutoff 3-fold increase, read-out: AK-based Prestwick library screening result, E. coli (fold increase in extracellular AK activity))?
Answer: 0.8

Question: `Cc1cc2nc3c(=O)[nH]c(=O)nc-3n(C[C@H](O)[C@H](O)[C@H](O)CO)c2cc1C` [Riboflavine] was tested. Which fold induction at 50 µM ([1]; planktonic, cutoff for positive 3-fold increase, read-out: AK-based Prestwick Library Screening Results, A. baumannii (fold increase in extracellular AK activity)) did it give?
Answer: 1.2

Question: And the fold induction at 50 µM (E. cloacae; planktonic, cutoff for positive 3-fold increase, read-out: AK-based Prestwick Library Screening Results, E. cloacae (fold increase in extracellular AK activity))?
Answer: 1.5

Question: And the fold induction at 50 µM (K. pneumoniae; planktonic, cutoff for positive 3-fold increase, read-out: AK-based Prestwick Library Screening Results, K. pneumoniae (fold increase in extracellular AK activity))?
Answer: 1.6

Question: What about the fold induction at 50 µM (E. faecium; planktonic, cutoff for positive 3-fold increase, read-out: AK-based Prestwick Library Screening Results, E. faecium (fold increase in extracellular AK activity)) of the same molecule?
Answer: 1

Question: What about the fold induction at 50 µM ([2]; planktonic, cutoff for positive 3-fold increase, read-out: AK-based Prestwick Library Screening Results, S. aureus (fold increase in extracellular AK activity)) of the same molecule?
Answer: 0.9

Question: What about the fold induction at 50 µM (P. aeruginosa; planktonic, cutoff for positive 3-fold increase, read-out: AK-based Prestwick Library Screening Results, P. aeruginosa (fold increase in extracellular AK activity)) of the same molecule?
Answer: 1.2

Question: And the fold induction at 50 µM (E. coli; planktonic, cutoff for positive 3-fold increase, read-out: AK-based Prestwick Library Screening Results, E. coli (fold increase in extracellular AK activity))?
Answer: 1.1

Question: How did the fold induction at 50 µM ([1]; planktonic, cutoff for positive-scoring molecules 3-fold increase, read-out: AK-based Prestwick Library Screening Results, A. baumannii (fold increase in extracellular AK activity)) turn out when `NC[C@H]1O[C@H](O[C@H]2[C@H](O[C@@H]3O[C@H](CO)[C@@H](O)[C@H]3O)[C@@H](O)[C@H](N)C[C@@H]2N)[C@H](N)[C@@H](O)[C@@H]1O` [Ribostamycin sulfate salt] was run?
Answer: 0.8

Question: And the fold induction at 50 µM (E. cloacae; planktonic, cutoff for positive-scoring molecules 3-fold increase, read-out: AK-based Prestwick Library Screening Results, E. cloacae (fold increase in extracellular AK activity))?
Answer: 1.2

Question: What about the fold induction at 50 µM (K. pneumoniae; planktonic, cutoff for positive-scoring molecules 3-fold increase, read-out: AK-based Prestwick Library Screening Results, K. pneumoniae (fold increase in extracellular AK activity)) of the same molecule?
Answer: 0.7

Question: What about the fold induction at 50 µM (E. faecium; planktonic, cutoff for positive-scoring molecules 3-fold increase, read-out: AK-based Prestwick Library Screening Results, E. faecium (fold increase in extracellular AK activity)) of the same molecule?
Answer: 0.9

Question: And the fold induction at 50 µM ([2]; planktonic, cutoff for positive-scoring molecules 3-fold increase, read-out: AK-based Prestwick Library Screening Results, S. aureus (fold increase in extracellular AK activity))?
Answer: 0.8

Question: And the fold induction at 50 µM (P. aeruginosa; planktonic, cutoff for positive-scoring molecules 3-fold increase, read-out: AK-based Prestwick Library Screening Results, P. aeruginosa (fold increase in extracellular AK activity))?
Answer: 0.8

Question: And the fold induction at 50 µM (E. coli; planktonic, cutoff for positive-scoring molecules 3-fold increase, read-out: AK-based Prestwick Library Screening Results, E. coli (fold increase in extracellular AK activity))?
Answer: 0.9

Question: `COc1ccn(C)c(=O)c1C#N` [Ricinine] was tested. Which fold induction at 50 µM ([1]; planktonic, […], read-out: AK-based Prestwick Library Screening Results, A. baumannii (fold increase in extracellular AK activity)) did it give?
Answer: 0.8

Question: What about the fold induction at 50 µM (E. cloacae; planktonic, […], read-out: AK-based Prestwick Library Screening Results, E. cloacae (fold increase in extracellular AK activity)) of the same molecule?
Answer: 1.3

Question: And the fold induction at 50 µM (K. pneumoniae; planktonic, […], read-out: AK-based Prestwick Library Screening Results, K. pneumoniae (fold increase in extracellular AK activity))?
Answer: 0.8

Question: What about the fold induction at 50 µM (E. faecium; planktonic, […], read-out: AK-based Prestwick Library Screening Results, E. faecium (fold increase in extracellular AK activity)) of the same molecule?
Answer: 0.9

Question: What about the fold induction at 50 µM ([2]; planktonic, […], read-out: AK-based Prestwick Library Screening Results, S. aureus (fold increase in extracellular AK activity)) of the same molecule?
Answer: 0.9

Question: And the fold induction at 50 µM (P. aeruginosa; planktonic, […], read-out: AK-based Prestwick Library Screening Results, P. aeruginosa (fold increase in extracellular AK activity))?
Answer: 0.7

Question: And the fold induction at 50 µM (E. coli; planktonic, […], read-out: AK-based Prestwick Library Screening Results, E. coli (fold increase in extracellular AK activity))?
Answer: 0.8
